# Reference: article PMC11770630 (Journal of Medicinal Chemistry, 2025)
# Key:
# [1] = system: MERLIN-HCT116 cells; assay: MERLIN BRET biosensor assay of mitochondria-ER distance; type: cell-based, human
# [2] = system: HCT116 cells; settings: 24 h, safety limit cell viability >80%; for Cell viability (MTT), safety at 1 μM: HCT116, 1 μM; for Cell viability (MTT), safety above 5 μM: HCT116, 5 and 10 μM
# [3] = system: ALS patient-derived lymphoblastic cell lines; assay: Extracellular NBD-cholesterol uptake in patient lymphoblastic cell lines; type: cell-based, human; settings: SOD1-ALS lymphoblastoid cell lines, 5 μM, 24 h, NBD-cholesterol 1 h
# [4] = system: control and sALS lymphoblasts; assay: Quantification of lipid droplets; type: cell-based, human; settings: control or sALS lymphoblasts, 5 μM for 24 h
# [5] = system: lymphoblasts from sporadic ALS patients; assay: Electron microscopy of lymphoblast cells; type: cell-based, human; settings: 5 μM for 24 h
# [6] = system: control and sALS lymphoblasts; assay: Cholesteryl-esters determination; type: cell-based, human; settings: control or sALS lymphoblasts, 5 μM for 24 h
# [7] = system: HCT116 cells; assay: Extracellular NBD-cholesterol uptake in HCT116 cells; type: cell-based, human; settings: HCT116, 5 μM, after 3 h
# [8] = system: sALS lymphoblasts; assay: Mitochondrial oxygen consumption rate; type: cell-based, human; settings: 5 μM, 24 h
SMILES,"Cell viability (MTT), safety at 1 μM [2]","Cell viability (MTT), safety above 5 μM [2]",BBB passive permeation (PAMPA),also measured
"O=C(Nc1ccc([N+](=O)[O-])cc1Cl)c1cc(Cl)ccc1O [Compound 1, 5-Chloro-N-(2-chloro-4-nitrophenyl)-2-hydroxybenzamide, reference compound]",–,–,–,"EC50 ([1]; Homo sapiens, read-out: EC50 (BRET), HTS hit): 8.36 µM"
"O=C(Nc1ccc([N+](=O)[O-])cc1F)c1cc(Cl)ccc1O [Compound 2, 5-Chloro-N-(2-fluoro-4-nitrophenyl)-2-hydroxybenzamide]",safe,–,–,–
"O=C(Nc1ccccc1)c1cc(Cl)ccc1O [Compound 24, 5-Chloro-2-hydroxy-N-phenylbenzamide]",safe,cellular safety above 5 μM,demonstrated the capability to cross the BBB through passive permeation,"BRET signal change (individual data) ([1]; higher doses, normalized to DMSO (MOCK)): significant BRET increases at higher doses; Extracellular cholesterol uptake [3]: this change was not observed; Lipid droplet levels [4]: increase the levels of lipid droplet; Number of MERCs (TEM) ([5]; lymphoblasts from sALS patients): rescued the number of contacts; Lipid droplets in cytosol (TEM) ([5]; sALS lymphoblasts): displayed large lipid droplets in their cytosol; Mitochondrial cristae structure (TEM) ([5]; sALS lymphoblasts): cristae structure was restored; Cholesteryl esters levels [6]: induce the formation of cholesteryl esters; Extracellular cholesterol uptake capacity [7]: significantly increased; Basal OCR [8]: successfully restored basal OCR levels; Spare respiratory capacity [8]: notable improvement in spare respiratory capacity"
"O=C(Nc1ccc([N+](=O)[O-])cc1)c1cc(Cl)ccc1O [Compound 25, 5-Chloro-2-hydroxy-N-(4-nitrophenyl)benzamide]",–,–,demonstrated the capability to cross the BBB through passive permeation,–
"N#Cc1ccc(NC(=O)c2cc(Cl)ccc2O)cc1 [Compound 27, 5-Chloro-N-(4-cyanophenyl)-2-hydroxybenzamide]",safe,cellular safety above 5 μM,demonstrated the capability to cross the BBB through passive permeation,–
"O=C(Nc1cccc([N+](=O)[O-])c1)c1cc(Cl)ccc1O [Compound 29, 5-Chloro-2-hydroxy-N-(3-nitrophenyl)benzamide]",safe,cellular safety above 5 μM,demonstrated the capability to cross the BBB through passive permeation,–
